The values below are quoted from earlier work in patent US8415362B2, “Pyrazolyl substituted pyrrolo[2,3-b]pyrimidines as Janus kinase inhibitors” (Incyte Corporation, priority 2005, dated 2013).

One series deals with T1, JAK3 (Mus musculus, UniProt Q62137).
T1 construct: host or cells: NOD mouse (in vivo)
T1 sequence (Q62137 1-1100): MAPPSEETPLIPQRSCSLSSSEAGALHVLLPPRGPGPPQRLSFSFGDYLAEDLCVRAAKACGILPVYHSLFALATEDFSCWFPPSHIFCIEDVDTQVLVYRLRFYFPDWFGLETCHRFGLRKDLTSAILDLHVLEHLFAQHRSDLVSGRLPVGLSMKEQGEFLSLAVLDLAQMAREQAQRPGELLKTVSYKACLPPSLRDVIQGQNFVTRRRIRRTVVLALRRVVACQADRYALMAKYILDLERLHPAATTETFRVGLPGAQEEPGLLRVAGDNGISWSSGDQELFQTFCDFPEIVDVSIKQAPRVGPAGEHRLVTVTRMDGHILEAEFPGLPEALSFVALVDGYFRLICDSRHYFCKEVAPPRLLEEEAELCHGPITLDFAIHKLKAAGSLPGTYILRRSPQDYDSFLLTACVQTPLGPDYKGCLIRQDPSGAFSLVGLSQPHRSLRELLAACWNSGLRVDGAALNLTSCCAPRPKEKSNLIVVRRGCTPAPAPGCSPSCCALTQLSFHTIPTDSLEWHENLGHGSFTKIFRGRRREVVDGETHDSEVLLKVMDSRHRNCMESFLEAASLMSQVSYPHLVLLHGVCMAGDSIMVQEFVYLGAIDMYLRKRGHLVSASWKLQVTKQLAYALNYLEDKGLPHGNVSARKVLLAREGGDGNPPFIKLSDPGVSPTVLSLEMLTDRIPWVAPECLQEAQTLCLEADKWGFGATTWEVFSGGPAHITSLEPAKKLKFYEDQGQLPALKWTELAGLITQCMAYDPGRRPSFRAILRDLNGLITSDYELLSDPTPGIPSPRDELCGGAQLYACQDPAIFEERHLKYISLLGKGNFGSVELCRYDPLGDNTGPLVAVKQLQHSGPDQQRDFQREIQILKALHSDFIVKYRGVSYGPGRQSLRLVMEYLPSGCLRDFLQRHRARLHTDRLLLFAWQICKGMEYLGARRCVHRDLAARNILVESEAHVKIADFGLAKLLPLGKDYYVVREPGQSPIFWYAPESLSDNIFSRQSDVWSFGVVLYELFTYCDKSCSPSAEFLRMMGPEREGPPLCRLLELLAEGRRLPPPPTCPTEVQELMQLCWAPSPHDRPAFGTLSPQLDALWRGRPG

For series [1] the following is noted: some patients.
Series [2] has as its system myeloid dendritic cells (DCs). The settings on record: DCs arrested at an immature level.
The subject of series [3] is IL-6-dependent MM cell lines.

`COc1cc2ncnc(Nc3ccc(O)cc3)c2cc1OC` [JANEX-1]: the onset of diabetes entry on JAK3 (NOD mouse model of autoimmune type I diabetes) is “delayed the onset of diabetes”. In addition, on JAK3 (mouse, in vivo), the immunomodulatory activity result is listed as “potent immunomodulatory activity”.
Turning to `C#Cc1cccc(Nc2ncnc3cc(OCCOC)c(OCCOC)cc23)c1` [Tarceva], the acneiform rash entry in series [1] is on record as “induced acneiform rash”.
For the molecule `COc1cc2ncnc(Nc3ccc(O)c(Br)c3)c2cc1OC` [WHI-P-154], the “CD40-induced effects (JAK3 activity, costimulatory molecule expression, IL-12 production, allogeneic stimulatory capacity)” value in series [2] was “prevented these effects”.
Consider `N#C/C(=C\c1ccc(O)c(O)c1)C(=O)NCc1ccccc1` [tyrphostin AG490], for which, in series [3] (IL-6-dependent MM cell lines), the “ERK2 and STAT3 phosphorylation” value is recorded as “inhibited”; the JAK2 kinase activity entry is on record as “inhibited”; the apoptosis entry is “induced”; the cell proliferation entry is listed as “suppressed”. The “dormancy of tumor cells” value in series [3] (in some cases, then protects the tumor cells from death) is given as “induce dormancy of tumor cells”.
